Measured values as given in patent US20220185764A1, “Resveratrol derivative and anti-fibrotic method using the same” (TAIZHOU HUAYUAN MEDICINAL TECH CO. LTD., priority 2020, published 2022).

Columns and labels:
[1] = tested on: CCl4 induced liver fibrosis in rats; test: Evaluation of anti-liver fibrosis in vivo (CCl4 induced liver injury/fibrosis); design: species or system SD rats; conditions: test compound 10 mg/ml, 0.5 ml/100 g intragastric 1 time/day, 8 weeks; for GSH-PX / HYP / MDA / SOD: liver tissue, ELISA kit, CCl4 rats; for ALP / ALT / AST / LDH: serum, male SD rats, 40% CCl4 oil i.p. 1 time/3 days
Experimental: CCl4 was prepared into a 40% CCl4 oil with commercially available non-genetically modified peanut oil. The test compound was prepared into a 10 mg/ml solution with a 0.5% sodium carboxymethyl cellulose solution, for later use.
Adult male SD rats were randomly divided into a normal control group, a model group and a drug treatment group. The rats in the normal control group were intraperitoneally injected with peanut oil (0.3 ml/100 g, 1 time/3 days), and intragastrically administrated with 0.5% sodium carboxymethyl cellulose solution (0.5 ml/100 g, 1 time/1 day). The rats in the model group were intraperitoneally injected with 40% CCl4 oil (0.3 ml/100 g, 1 time/3 days), and intragastrically administrated with 0.5% sodium carboxymethyl cellulose solution (0.5 ml/100 g, 1 time/day). The rats in the drug treatment group were intraperitoneally injected with 40% CCl4 oil (0.3ml/100 g, 1 time/3 days), and intragastrically administrated with the 0.5% sodium carboxymethyl cellulose solution of the test compound (0.5 ml/100 g, 1 time/day). Rats in each group were bred in an air-conditioned animal laboratory with a temperature of (23±1)° C. and a relative humidity of (45±5)%, with day and night alternating every 12 hours, and they were free to eat and drink.
After being fed for 8 weeks, all the rats were fasted for 12 hours. After anesthesia, the blood of the rat was collected from the femoral artery, and the whole liver tissue was quickly weighed and frozen in liquid nitrogen for later use. 3 rats in each group were taken and their livers were cut, soaked into formalin solution for 24 h and prepared to paraffin-embedded pathological sections. The whole blood of the rats was centrifuged at 3000 r/min for 10min to obtain the separated serum, which was then frozen and stored for later use.
Alanine aminotransferase (ALT), aspartate aminotransferase (AST), alkaline phosphatase (ALP), and lactate dehydrogenase (LDH) in the serum were measured by Hitachi 7600 automatic biochemical analyzer.
The concentration of hydroxyproline (HYP) or malondialdehyde (MDA), and the activity of superoxide dismutase (SOD) or glutathione peroxidase(GSH-Px) in liver tissues were detected according to the corresponding operation steps of ELISA kit (Nanjing Jiancheng Biological Company).

[2] = tested on: bleomycin-induced pulmonary fibrosis in rats; test: Evaluation of anti-pulmonary fibrosis in vivo (bleomycin-induced); design: species or system SD rats; conditions: lung tissue, 14th day
Experimental: Bleomycin (batch number: 16037911, Hisun Pfizer Co., Ltd.) was prepared into a 5 mg/mL solution with normal saline; and the test compound was prepared into a solution with a 0.5% sodium carboxymethyl cellulose solution to a certain concentration for later use.
Adult male SD rats were randomly divided into a normal control group, a model group and a drug treatment group. After the animals in each group were anesthetized by intraperitoneal injection of 20% urethane (10 mL/kg), they were incised in the middle of the neck to expose the trachea. The rats in the normal control group were injected with 0.2 ml normal saline into the trachea all at once, and intragastrically administrated with 0.5% sodium carboxymethyl cellulose solution (0.5 ml/100 g, 1 time/day) the next day. The rats in the model group were injected with 0.2 ml of bleomycin solution into the trachea all at once, and simultaneously intragastrically administrated with 0.5% sodium carboxymethyl cellulose solution (0.5 ml/100 g, 1 time/day). The rats in the drug treatment group were injected with 0.2 ml bleomycin solution into the trachea all at once and simultaneously intragastrically administrated with the 0.5% sodium carboxymethyl cellulose solution of the test compound at different concentrations (0.5 ml/100 g, 1 time/day). The rats in each group were bred in an air-conditioned animal laboratory with a temperature of (23±1)° C. and a relative humidity of (45±5)%, with day and night alternating every 12 hours, and they were free to eat and drink. The rats were fasted for 12 hours on the 14th day after administration. After anesthesia, the blood of the rat was collected from the femoral artery and the lung tissue was separated. The right lung was perfused with 10% neutral formaldehyde through the trachea and then was put into stationary liquid for fixation and pathological examination. The left lung was cryopreserved in a refrigerator at -80° C. for testing the biochemical indicators.
The contents of HYP, MDA, GSH and SOD in lung tissues were detected according to the corresponding operation steps of ELISA kit (Nanjing Jiancheng Biological Company).

liver function in mice = test: Evaluation of subacute toxicity (continuous administration, liver function); type: in vivo; design: AST / ALP: unit not given here; conditions: serum; male ICR mice, 200 mg/kg intragastric once a day for 4 consecutive weeks
Experimental: Male ICR mice aged 6-8 weeks were fasted for 16 hours and randomly divided into groups, 5 mice per group. The test compound was formulated into a suspension with a 0.5% sodium carboxymethyl cellulose solution, and administered intragastrically at a concentration of 200 mg/kg, once a day for 4 consecutive weeks. After the last administration, the mice were fasted for 12 hours but were free to drink water during the fasting period. Then the mice were anesthetized. Blood was taken from the abdominal aorta and serum was prepared for the determination of blood biochemical and immunological indicators. EDTA anticoagulant blood was prepared for routine blood measurement. Except for some significant increase in transaminase (ALT, AST, […]) of some drug administration groups, there were no significant differences in other indicators among the groups.

[3] = dose 50 mg/kg intragastric 1 time/day
[4] = dose 100 mg/kg intragastric 1 time/day

Structure (SMILES) | GSH-PX [1] [U/mg protein] | HYP [1] [μg/mg protein] | MDA [1] [nmol/mg protein] | SOD [1] [U/mg protein] | ALP [1] [U/L] | ALT [1] [U/L] | AST [1] [U/L] | LDH [1] [U/L] | HYP [2, 3] [μg/mg protein] | MDA [2, 3] [nmol/mg protein] | HYP [2, 4] [μg/mg protein] | MDA [2, 4] [nmol/mg protein] | ALP (liver function in mice) | ALT (liver function in mice) [U/L] | AST (liver function in mice)
[2H]C([2H])([2H])Oc1cc(/C=C/c2ccc(OC)cc2)cc(OCCCC(C)(C)C(=O)O)c1 [Compound I-4b, 3-trideuterated methoxy-4′-methoxy-5-(4-methyl-4-carboxypentyloxy)-(E)-stilbene] | 224.33 ± 2.16 | 0.68 ± 0.27 | 0.77 ± 0.14 | 28.64 ± 6.33 | 140.8 ± 60.2 | 91.3 ± 32.5 | 233.5 ± 90.6 | 771.1 ± 210.2 | 0.74 ± 0.19 | 0.96 ± 0.19 | 0.59 ± 0.12 | 0.78 ± 0.24 | 258.33 ± 219.45 | 16.07 ± 2.45 | 72.73 ± 15.82
Oc1ccc(C=Cc2cc(O)cc(O)c2)cc1 [Resveratrol] | 174.33 ± 40.75 | 0.93 ± 0.15 | 1.17 ± 0.35 | 28.09 ± 4.55 | 203.6 ± 43.9 | 96.8 ± 41.9 | 205.33 ± 85.3 | 846.5 ± 261.2 | – | – | 0.75 ± 0.34 | 0.92 ± 0.33 | – | – | –
[2H]C([2H])([2H])Oc1ccc(/C=C/c2cc(OC)cc(OCCCC(C)(C)C(=O)O)c2)cc1 [Compound I-3b, 3-methoxy-4′-trideuterated methoxy-5-(4-methyl-4-carboxypentyloxy)-(E)-stilbene] | 194.09 ± 32.82 | 0.70 ± 0.61 | 0.92 ± 0.43 | 31.33 ± 6.50 | 154.3 ± 65.0 | 79.9 ± 43.8 | 221.9 ± 109.4 | 780.4 ± 152.3 | 0.51 ± 0.09 | 0.81 ± 0.09 | 0.47 ± 0.10 | 0.73 ± 0.06 | 381.67 ± 221.42 | 36.57 ± 10.40 | 138.32 ± 29.72
COc1ccc(/C=C/c2cc(OC)cc(OCCCC(C)(C)C(=O)O)c2)cc1 [Compound I-1b, 3,4′-dimethoxy-5-(4-methyl-4-carboxypentyloxy)-(E)-stilbene] | 204.78 ± 27.75 | 0.59 ± 0.06 | 0.72 ± 0.12 | 29.99 ± 5.24 | 149.9 ± 52.9 | 85.3 ± 46.4 | 209.1 ± 63.2 | 843.1 ± 247.9 | 0.71 ± 0.17 | 0.91 ± 0.05 | 0.54 ± 0.12 | 0.84 ± 0.09 | 471.35 ± 29.88 | 47.33 ± 10.61 | 161.6 ± 18.32
[2H]C([2H])([2H])Oc1ccc(/C=C/c2cc(OCCCC(C)(C)C(=O)O)cc(OC([2H])([2H])[2H])c2)cc1 [Compound I-2b, 3,4′-bis-[(trideuteratedmethyl)-oxy]-5-(4-methyl-4-carboxypentyloxy)-(E)-stilbene] | 231.48 ± 58.72 | 0.58 ± 0.29 | 0.70 ± 0.08 | 33.60 ± 7.64 | 141.6 ± 27.6 | 69.1 ± 23.3 | 192.4 ± 78.4 | 836.5 ± 375.5 | 0.52 ± 0.11 | 0.75 ± 0.13 | 0.45 ± 0.08 | 0.76 ± 0.06 | 242.83 ± 83.29 | 26.47 ± 6.79 | 105.33 ± 16.85
